Experimental data reported in patent US12679839B2, “Cyclin-dependent kinase 7 (CDK7) non-covalent inhibitors” (JANSSEN PHARMACEUTICA NV, priority 2020, dated 2026).

Key:
[1] = molecular target: T1, CDK7/Cyclin H/MAT-1 complex (Homo sapiens, UniProt P50613); assay: Flint assay, end-point fluorescence (5 nM CDK7/Cyclin H/MAT-1 complex); assay type: biochemical; conditions: read-out: CDK7 (5 nM) pIC50 (converted)
T1 construct: Human CDK7 (amino acids 1-346); His6 (N); TEV protease cleavage site (N); made in house; host or cells: baculovirus-SF9 insect cells
T1 sequence (P50613 whole entry, the tested form may be a part): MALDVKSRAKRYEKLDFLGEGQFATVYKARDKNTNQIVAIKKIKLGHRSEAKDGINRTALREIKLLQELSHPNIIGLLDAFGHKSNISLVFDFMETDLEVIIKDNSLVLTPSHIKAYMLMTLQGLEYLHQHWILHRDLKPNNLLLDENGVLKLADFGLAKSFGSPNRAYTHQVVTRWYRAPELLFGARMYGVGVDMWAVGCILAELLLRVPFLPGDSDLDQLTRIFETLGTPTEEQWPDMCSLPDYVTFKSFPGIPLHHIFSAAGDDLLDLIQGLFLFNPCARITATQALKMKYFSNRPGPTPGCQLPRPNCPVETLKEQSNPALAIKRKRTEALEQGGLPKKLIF
T1 sequence (P51946 whole entry partner, the tested form may be a part): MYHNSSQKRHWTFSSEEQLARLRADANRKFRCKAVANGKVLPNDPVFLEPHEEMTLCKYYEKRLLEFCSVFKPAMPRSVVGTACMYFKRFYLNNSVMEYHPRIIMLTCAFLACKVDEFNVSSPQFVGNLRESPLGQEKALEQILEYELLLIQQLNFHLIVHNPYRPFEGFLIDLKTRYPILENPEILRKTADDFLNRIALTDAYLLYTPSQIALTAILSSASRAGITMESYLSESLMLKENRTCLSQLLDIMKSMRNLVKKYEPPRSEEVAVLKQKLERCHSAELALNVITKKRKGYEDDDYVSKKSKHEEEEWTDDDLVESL
T1 sequence (P51948 whole entry partner, the tested form may be a part): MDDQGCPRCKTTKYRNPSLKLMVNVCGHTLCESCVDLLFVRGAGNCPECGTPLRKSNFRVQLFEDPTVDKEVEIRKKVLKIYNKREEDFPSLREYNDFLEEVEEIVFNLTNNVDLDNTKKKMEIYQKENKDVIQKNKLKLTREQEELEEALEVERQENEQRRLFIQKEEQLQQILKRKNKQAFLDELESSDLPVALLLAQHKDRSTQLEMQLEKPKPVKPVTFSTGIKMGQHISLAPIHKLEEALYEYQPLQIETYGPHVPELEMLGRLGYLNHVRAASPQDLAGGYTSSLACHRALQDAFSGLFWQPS
Experimental: (§1) Human CDK7 (amino acids 1-346) containing an N-terminal His6-tag followed by a tobacco etch virus (TEV) protease cleavage site, human MAT1 (amino acids 1-309) and human cyclin H (amino acids 1-323) were co-expressed in the baculovirus-SF9 insect cell expression system to generate a trimeric complex. Cell pellets were collected 72 h post-infection and were resuspended by Dounce homogenization in 20 mM Hepes-NaOH (pH 8.0), 300 mM NaCl, 10% glycerol, 2 mM dithiothreitol DTT), and 20 mM Imidazole supplemented with cOmplete™ Protease Inhibitor Cocktail (Roche) and 25 U/mL Benzonase® Nuclease HC according to the manufacturer's instructions. Cells were lysed by passing through a Microfluidics M110Y Microfluidizer 3 times at 600 kPa followed by centrifugation at 38,000×g at 4° C. for 1 hour. The supernatant was loaded onto a pre-equilibrated HisTrap HP column and eluted in 20 mM Hepes-NaOH (pH 8.0), 50 mM NaCl, 10% glycerol, 2 mM DTT, and 400 mM Imidazole. The eluate was further purified by gel filtration on a Superdex S200 16/60 column and eluted with 20 mM Hepes-NaOH (pH 7.5), 50 mM NaCl, 10% Glycerol, 2 mM DTT. Fractions containing a trimeric complex of CDK7, cyclin H, and MAT1 in a 1:1:1 ratio were pooled and concentrated to 3 mg/mL in a 10 kDa MWCO concentrator, and diluted to a final concentration of 1.6 mg/mL in 11.1 mM Hepes-NaOH (pH 8.0), 27.8 mM NaCl, 1.1 mM DTT and 50% glycerol.
Compounds with potencies approaching the limit of detection of the assay (IC50≤10 nM) were further assessed in a more sensitive fluorescence end-point assay.
(§2) [formula] where νo is the rate in the absence of inhibitor, νmin is the rate at highest inhibitor concentration, and h is the Hill coefficient. Flint Assay (5 nM CDK7/Cyclin H/MAT-1 Complex)
The continuous absorbance assay was converted to an end-point fluorescence assay following the NADH fluorescence signal decrease at the excitation and emission wavelengths of 340 nm and 440 nm, respectively.
Under the same concentrations of substrates and coupling reagents used in the absorbance assay, the fluorescence assay was performed at a reduced concentration of the CDK7/Cyclin H/MAT-1 complex of 5 nM (final concentration) with a reaction time of 24 hours. The percent of inhibition was calculated by the following equation. Percent of inhibition=(Sample−NC)/(PC−NC)*100 where NC is the mean if negative control (reaction without inhibitor), and PC is the mean of positive control (reaction with complete inhibition).
Dosing curves were fitted using the following equation to obtain IC50: Y=Bottom+(Top−Bottom)/(1+10^((log IC50−X)*Hill slope)) where X=log10 of the compound concentration; top and bottom can be defined by PC and NC respectively. Imaging-Based Cellular RNA PolII Ser5 Phosphorylation Assay

[2] = tested on: RNA polymerase II Serine 5 phosphorylation (Rpb1 CTD), downstream substrate of CDK7; assay: Imaging-based cellular RNA PolII Ser5 phosphorylation assay in A549 cells; assay type: cell-based, human; conditions: Homo sapiens, A549, 3 h, challenged with compound for 3 hours, read-out: pRNA polII Ser5 (A549) pIC50 (converted)
In short: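 A549 cells seeded 20 h in DMEM with 1% FBS, then exposed to compound for 3 h at 37 °C; fixed, methanol-permeabilized and immunostained for phospho-Rpb1 CTD Ser5, read by automated imaging. Signal normalized to DMSO (high) and 10 μM LDC4297 (low) controls; IC50 from four-parameter fit of % control vs concentration.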

[3] = molecular target: T1, CDK7/Cyclin H/MAT-1 complex; assay: Absorbance kinetic assay (20 nM CDK7/Cyclin H/MAT-1 complex); assay type: biochemical; conditions: for IC50: read-out: CDK7 (20 nM) pIC50 (converted)
Experimental: as §1, with “glycerol. […]” for “glycerol.”
Absorbance Kinetic Assay (20 nM CDK7/Cyclin H/MAT-1 Complex)
CDK7 complex catalyzes the ATP-dependent phosphorylation of a peptide substrate CDK7/9-tide that is derived from RNA Pol II to produce phosphorylated peptide and ADP. The kinase reaction product ADP was converted to lactate and NAD^+ in the presence of phosphoenol pyruvate (PEP), NADH and coupling enzymes lactate dehydrogenase (LDH) and pyruvate kinase (PK). CDK7 complex catalytic activity was measured by following the absorbance intensity continuously at 340 nm that corresponds with the depletion of NADH.
Absorbance at 340 nm was followed kinetically at an interval of 2 minutes for 8 hours.
The assay was carried out with 100 μl reaction volume per well in a 384-well plate that was pre-spotted nanoliter volume of compounds by LabCyte Echo 555. Compound dilution plates were made by 2-fold (could vary upon necessity) dilution in DMSO for 11 concentrations plus a DMSO control of uninhibited reaction. 2× substrate and coupling reagent mixture was added to the assay plate followed by an addition of an equal volume of 40 nM CDK7/Cyclin H/MAT-1 complex. After mixing, assay plates were spun at 2000 rpm for 3 minutes and then transferred to the plate reader for data collection.
For reversible inhibitors, the absorbance reaction progress curves were linear. The steady-state rate was derived from the slope of the linear curves. The following equation is applied to determine percent inhibition.
[formula] • νo=max rate (uninhibited rate) • νi=inhibited rate
The IC50 value is calculated by the following equation:
as §2

Row | SMILES | IC50 [1] | IC50 [2] | IC50 [3] | CDK7 (20 nM) pIC50 [3]
1 | C[C@@H]1Cc2cnc(N[C@H]3CCN(C)C(=O)C3)nc2CN1C(=O)[C@H]1CCN(C)C[C@@H]1c1ccccc1 (relative stereo) [Compound 5] | 0.00214 µM |  | < 0.00977 µM | 
2 | C[C@@H]1Cc2cnc(NCc3ccn(C)n3)nc2CN1C(=O)[C@H]1CCN(C)C[C@@H]1c1ccccc1F (relative stereo) [Compound 131] | 0.00912 µM |  | 0.0617 µM | 
3 | CO[C@H]1CC[C@H](Nc2ncc3c(n2)CN(C(=O)[C@H]2CCN(C)C[C@@H]2c2ccnc(C)c2)[C@H](C)C3)CC1 (relative stereo) [Compound 106] |  | > 10 µM | 6.03 µM | 
4 | C[C@@H]1Cc2cnc(NC3CCOCC3)nc2CN1C(=O)N1CCNC[C@@H]1c1ccccc1 [Compound 208] |  | 1.23 µM |  | 7.66
5 | Cc1cccc([C@@H]2CN(C)CC[C@H]2C(=O)N2Cc3nc(Nc4cnn(C)c4)ncc3[C@@H]3C[C@@H]32)c1 (relative stereo) [Compound 202] |  | 6.92 µM | 2.34 µM | 
6 | C[C@@H]1Cc2cnc(NC3CCOCC3)nc2CN1C(=O)[C@H]1CCN(C)C[C@@H]1c1ccc(F)c(Cl)c1 (relative stereo) [Compound 114] |  | 0.0562 µM | 0.011 µM | 
7 | C[C@H]1c2nc(NC3CCOCC3)ncc2CCN1C(=O)[C@H]1CCN(C)C[C@@H]1c1ccccc1 (relative stereo) [Compound 184] |  | 0.537 µM | 0.0257 µM | 
8 | C[C@@H]1Cc2cnc(NC3CCN(C4CC4)CC3)nc2CN1C(=O)[C@H]1CCN(C)C[C@@H]1c1ccccc1 [Compound 42] |  | 1.38 µM |  | 7.39
9 | CO[C@H]1CC[C@H](Nc2ncc3c(n2)CN(C(=O)[C@@H]2CCN(C)C[C@H]2c2ccc(C)nc2)[C@H](C)C3)CC1 (relative stereo) [Compound 109] |  | > 10 µM | > 10 µM | 
10 | C[C@@H]1CN(C(=O)[C@H]2CCN(C)C[C@@H]2c2ccccc2)[C@H](C)c2nc(NC3CCOCC3)ncc21 (relative stereo) [Compound 182] |  | 4.27 µM | 0.724 µM | 
11 | C[C@@H]1C[C@H](C(=O)N2Cc3nc(NC4CCOCC4)ncc3C[C@H]2C)[C@@H](c2ccccc2)CN1C (relative stereo) [Compound 170a] |  | > 10 µM | 0.794 µM | 
12 | [2H]C([2H])([2H])N1CC[C@H](C(=O)N2Cc3nc(NC4CCOCC4)ncc3C[C@H]2C)[C@@H](c2ccccc2)C1 (single isomer, unassigned) [Compound 156] | 0.00324 µM | 0.126 µM |  | 
13 | C[C@@H]1Cc2cnc(NC3CCOCC3)nc2CN1C(=O)[C@H]1CCN(C)C[C@@H]1c1ccc(F)cc1 (relative stereo) [Compound 120] |  | ~0.0676 µM | 0.012 µM | 
14 | C[C@@H]1Cc2cnc(NC3CCOCC3)nc2CN1C(=O)[C@@H]1CCN(C)C[C@H]1C(F)(F)F [Compound 140a] |  | > 10 µM |  | 5.89

Further lines, results first:

Row | IC50 [1] | IC50 [2] | IC50 [3] | CDK7 (20 nM) pIC50 [3] | SMILES
15 | 0.00741 µM | 0.186 µM |  |  | CO[C@H]1CC[C@H](Nc2cc3c(cn2)C[C@H](C)N(C(=O)[C@H]2CCN(C)C[C@@H]2c2ccccc2)C3)CC1 (single isomer, unassigned) [Compound 172]
16 | 0.00794 µM |  | 0.038 µM |  | C[C@@H]1Cc2cnc(NCc3ccn(C)n3)nc2CN1C(=O)[C@@H]1CCN(C)C[C@H]1c1ccccc1F (relative stereo) [Compound 130]
17 |  | > 10 µM | > 10 µM |  | C[C@H]1CN(C(=O)[C@H]2CCN(C)C[C@@H]2c2ccccc2)Cc2nc(NC3CCOCC3)ncc21 (relative stereo) [Compound 187]
18 |  | 4.47 µM |  | 7.67 | Cc1cc(C2CN(C)CCC2C(=O)N2Cc3nc(NC4CCOCC4)ncc3C[C@H]2C)ccn1 (stereo partly shown) [Compound 101]
19 |  | > 10 µM | > 10 µM |  | Cc1ccc([C@H]2CN(C)CC[C@@H]2C(=O)N2Cc3nc(NC4CCOCC4)ncc3C[C@H]2C)cn1 (relative stereo) [Compound 107]
20 |  | > 10 µM | > 10 µM |  | Cc1cc([C@H]2CN(C)CC[C@@H]2C(=O)N2Cc3nc(NC4CCOCC4)ncc3C[C@H]2C)ccn1 (relative stereo) [Compound 103]
21 |  | 1.74 µM | 0.0794 µM |  | C[C@@H]1Cc2cnc(NC3CCOCC3)nc2CN1C(=O)[C@H]1CCN(C)C[C@@H]1C1CC1 (relative stereo) [Compound 113]
22 |  | ~0.0692 µM |  | 7.81 | C[C@@H]1Cc2cnc(NC3CCN(C(=O)CC4CC4)CC3)nc2CN1C(=O)[C@H]1CCN(C)C[C@@H]1c1ccccc1 [Compound 31]
23 |  | 2.09 µM |  | 7.50 | Cc1ccc(CNc2ncc3c(n2)CN(C(=O)[C@H]2CCN(C)C[C@@H]2c2ccccc2)[C@H](C)C3)cn1 [Compound 27]
24 |  | 2.4 µM |  | 7.19 | C[C@@H]1Cc2cnc(NCC3CCOCC3)nc2CN1C(=O)[C@H]1CCN(C)C[C@@H]1c1ccccc1 [Compound 36]
25 |  | > 10 µM |  | 5.87 | C[C@@H]1Cc2cnc(NC3CCOCC3)nc2CN1C(=O)[C@@H]1CC[C@H](N(C)C)CN1c1ccccc1 (mixture of isomers) [Compound 168]
26 |  | 2.4 µM | 0.0145 µM |  | C[C@@H]1Cc2cnc(NC[C@H]3CCCO3)nc2CN1C(=O)[C@H]1CCN(C)C[C@@H]1c1ccccc1 [Compound 68]
